Test results from patent publication US9861094B2, “Composition and method for tissue preservation and embalming” (OGF, priority 2008, dated 2018).

Experiments:
[1] = tested on: bodies for dissection; test: embalming of bodies for dissection (injection alone, no tapping); design: species or system human; details: bronopol 1% by weight, 4 liters injected; dissections 14 and 16 days after death
Protocol: In this type of procedure, no liquid tapping or cavity injection is carried out.
1. Tests were also carried out within the faculty of medicine in the context of the preservation of bodies for dissection.
The results observed are very interesting, knowing that these tests were carried out by injection alone with no tapping.
To obtain optimum preservation of the body, a bronopol concentration of 1% by weight was used for a total injected quantity of 4 liters.
For example, the above-mentioned composition (2) was used on a subject of average build (a person who had been dead for eight days).
Before the test was performed, very marked lividities, large green abdominal marks and sunken eyes (the body had been frozen) were observed.
The product was then injected through the carotid artery in one pass (one times 3.6 liters of water and 400 ml of the above-mentioned composition (2)), for better product dilution (injection total=4 liters) (bronopol concentration=1%).
The subject was moved alternately between the cold storage room (7° C.) and the autopsy table (25° C.).

[2] = tested on: bodies of the deceased; test: embalming tests for presentation of the deceased (arterial and cavity injection); design: species or system human; details: 0.6% bronopol; bodies with no particular abnormality
Protocol: For arterial injection, the following compositions were prepared and tested (these compositions are prepared for 1 liter of concentrated solution to which 5 liters of water are added):
This operation uses the method generally used for embalming procedures, namely injection and drainage, said drainage being generally performed in the region of the right heart.
Injection is carried out through the femoral, carotid or axillary arteries.
The amount of fluid injected is approximately 6 liters, but this amount may vary depending on the state of the deceased and the diagnosis made by the embalmer, for example the need for more drainage.
For cavity injection, the following compositions were prepared and tested (these compositions are prepared for 500 ml and used as they are):
This operation uses the method widely practised in embalming procedures, that is, gas and fluid tapping in the region of the thoracic and abdominal cavities, and injection of the composition according to the invention into each of the cavities so that said composition is diffused optimally throughout the cavities concerned.
Still using an identical base of glycerine, ethanol or methanol, tests were carried out using the compositions described in the examples above (compositions (1), (2), (3) and (3a) for arterial injection and compositions (4) and (5) for cavity injection).

[3] = tested on: bacteria in the body fluid; test: bacteriological analyses of body fluid after embalming
Source text: The results obtained according to the bronopol concentration were as follows:

O=[N+]([O-])C(Br)(CO)CO [Bronopol, 2-bromo-2-nitropropane-1,3-diol]
odour [1]: lack of odour
state of preservation of the body and tissue suppleness [1]: very good results
overall result of embalming tests [2]: satisfactory results
Presence of bacteria in the body fluid ([3]; Bronopol concentration 0.90%): 1 out of 2 cases with bacteria
Presence of bacteria in the body fluid ([3]; Bronopol concentration ≦0.80%): 7 out of 8 cases with bacteria
Presence of bacteria in the body fluid ([3]; Bronopol concentration ≧1.2%): 1 out of 3 cases with bacteria
